# According to publication PMC11435625, “In Vitro Hepatic Clearance Evaluations of Per- and Polyfluoroalkyl Substances (PFAS) across Multiple Structural Categories” (Toxics, 2024):
# How the values were obtained:
# [1] = system: pooled primary human hepatocyte suspensions; assay: Hepatic clearance assay (substrate depletion, LC-MS); settings: in µL/min/10^6 cells; for Unadj Clint: unadjusted hepatic intrinsic clearance, Table S4; for Unadj Clint / in vitro CLint exp assay: pooled primary human hepatocyte suspensions; for CLint for HTTK: CLint value carried into HTTK/IVIVE
# Protocol: The rate of hepatic clearance was determined as previously described for a set of PFAS [11]. Analysis was conducted across two laboratories at the Division of Translational Toxicology (DTT) at the National Institute of Environmental Health Sciences (NIEHS) and the Center for Computational Toxicology and Exposure at the USEPA. The PFAS analyzed in each lab can be found in the Supplementary Materials.
# The hepatic clearance assay was performed at both the DTT and EPA laboratories as described below. The pooled human hepatocyte suspensions used in this work were purchased commercially and meet the ethical and scientific standards described in the Human Ethics Rule (40 CFR 26). The suspensions were prepared from hepatocytes obtained from de-identified donors by a commercial vendor.
# PFAS stock solutions prepared in DMSO were added to prewarmed William’s E medium to make a 2X working stock solution (2 µM). […] The working stock solutions were then transferred to a 96-well polypropylene plate and placed in an incubator at 37 °C with 5% carbon dioxide prior to adding cells. Cryopreserved pooled primary human hepatocyte suspensions (50-donor pool, mixed gender; BioIVT; Westbury, NY, USA) were thawed and transferred to vials containing hepatocyte thawing medium. After centrifuging for 5–10 min at 100× g, thawing medium was removed, being careful not to disturb the cell pellet. The primary human hepatocytes were then resuspended in pre-warmed complete Williams E medium to achieve a cell density of ~1.0 × 10^6 viable cells/mL as determined by Trypan Blue exclusion. Cells were then added to the 96-well incubation plates containing PFAS to achieve a final density of ~0.5 × 10^6 viable cells/mL and a 1 μM assay concentration (Ctest), then placed in incubator on a shaker at 300 rpm. Triplicate samples were removed from the incubator at time points ranging from 0 to 240 min and quenched with a total crash in 2–3 volumes of ice-cold acetonitrile. Samples were spun at 4000× g for 20 min, and supernatants were transferred to new tubes and stored at <−70 °C until analysis. Media-only (no cell) and/or heat-inactivated hepatocytes were included as negative controls for each chemical to evaluate and estimate chemical loss due to nonmetabolic processes (e.g., hydrolysis). Phenacetin was included in all runs as an assay reference compound; EPA also included propranolol as an additional reference compound.
# Assay samples were diluted in mobile phase and analyzed using a Thermo Vanquish UPLC system with a Thermo Hypersil Gold aQ C18 column (100 × 2.1 mm, 1.9 […], Thermo Fisher Scientific Inc.) coupled to a Q Exactive Plus mass spectrometer. Gradient elution was used in the chromatographic separations using water with 20 mM ammonium acetate (mobile phase A) and methanol (mobile phase B), with the following gradient program: 0.5–7 min, 30%–90% B; 7–8 min, 90% B; 8–9 min, 90%–30% B; and 9–10 min, 30% B. The first minute of each injection was diverted to waste to avoid introduction of excessive salts from incubation medium. Analysis was detected in negative ion mode. Samples were quantified against an external, matrix-matched calibration curve. Additional methodologic information is available in Table S2.
# To perform SPE, a positive-pressure manifold was employed along with Oasis WAX µElution plates and Oasis HLB 30 mg plates (Waters, Milford, MA, USA) for PFAS and positive-control extraction, respectively. […] The sorbent was then washed with 1% formic acid and water. Samples were eluted in 2% ammonia in methanol for analysis. Similarly, HLB plates were conditioned with methanol and water before sample was loaded onto the sorbent. The wells were then washed with 5% methanol in water and water before elution in methanol. For samples not undergoing SPE, the supernatant of the crashed assay sample was diluted in mobile phase prior to analysis. The first 1.5 min of the run was diverted to waste to prevent salt contamination.
# [2] = system: pooled primary human hepatocyte suspensions; assay: Bayesian (MCMC, invitroTKstats) analysis of hepatic clearance data; settings: for Clint.1.Med: Level-4 Bayesian estimate, posterior median, Clint.1 series (Clint.10 all NA)
# [3] = IVIVE: steady-state concentration (Css), generic HTTK model; design: species or system human; settings: for Css (mg/L) / Css (uM): Assuming 1 mg/kg/day dose rate, BW 70 kg; for CLhep: QL 1500000 uL/min; for Fub: fub=fup/(B:P), Fub set to 1 if needed; for CLint: scaled to whole liver: HPGL 110 mill cells/g, Vl 1596 g
# Protocol: IVIVE was performed as previously described to calculate human steady-state concentrations (Css). Briefly, experimental plasma protein binding data presented elsewhere were transformed to fraction unbound in blood using blood-to-plasma partitioning values. Experimental Clint values generated here are used in conjunction with relevant liver scalars to scale up to estimate whole liver clearance. […] Once Css values were established, these were used with the PFAS-specific in vitro POD data to calculate the administered equivalent doses (AEDs) using reverse dosimetry. […] The fifth-percentile AC50 value was used to define the in vitro POD. All relevant inputs, scalars, and calculations are provided in Supplementary Information, as indicated in the results.
# [4] = system: plasma protein; settings: cited from earlier work; for Mean fu: fraction unbound in plasma, input for IVIVE calculations
smiles,measurement,setting,value
O=S(=O)([O-])C(F)(F)C(F)(F)C(F)(F)C(F)(F)C(F)(F)C(F)(F)F.[K+] [Potassium perfluorohexanesulfonate],Unadj Clint,[1],0.00
same,Clint.1.Med,[2],0
O=C(O)C(F)(F)C(F)(F)C(F)(F)C(F)(F)C(F)(F)C(F)(F)C(F)(F)C(F)(F)C(F)(F)C(F)(F)C(F)(F)C(F)(F)C(F)(F)F [Perfluorotetradecanoic acid (PFTeDA)],Clint.1.Med,[2],0
C[N+](C)(C)CCCNS(=O)(=O)C(F)(F)C(F)(F)C(F)(F)C(F)(F)C(F)(F)C(F)(F)C(F)(F)C(F)(F)F,Clint.1.Med,[2],0
O=C(O)C(F)(F)C(F)(F)C(F)(F)C(F)(F)C(F)(F)C(F)(F)C(F)(F)C(F)(F)F [Perfluorononanoic_acid],Clint.1.Med,[2],10.4
O=C(O)CCC(F)(F)C(F)(F)C(F)(F)F [3:3 Fluorotelomer carboxylic acid],Unadj Clint,[1],0.00
same,Clint.1.Med,[2],0
O=S(=O)(O)C(F)(F)C(F)(F)C(F)(F)C(F)(F)C(F)(F)C(F)(F)C(F)(F)F [Perfluoroheptanesulfonic_acid],Clint.1.Med,[2],0
O=S(=O)(OCC(F)(F)F)C(F)(F)C(F)(F)C(F)(F)C(F)(F)F,Clint.1.Med,[2],0
O=C(O)C(F)(F)C(F)(F)C(F)(F)OC(F)(C(F)(F)F)C(F)(F)F [Perfluoro-4-isopropoxybutanoic_acid],Clint.1.Med,[2],0
"O=C(O)C=C(C(F)(F)F)C(F)(F)F [3,3-Bis(trifluoromethyl)-2-propenoic acid]",Unadj Clint,[1],1.82
same,Clint.1.Med,[2],0
CNS(=O)(=O)C(F)(F)C(F)(F)C(F)(F)C(F)(F)C(F)(F)C(F)(F)C(F)(F)C(F)(F)F [N-Methylperfluorooctanesulfonamide],Unadj Clint,[1],33.23
same,"metabolic clearance call, experimental and Bayesian analyses in agreement",[2]; both analyses agreed,metabolized
N.O=C(O)C(F)(F)C(F)(F)C(F)(F)C(F)(F)C(F)(F)C(F)(F)C(F)(F)F [Ammonium_perfluorooctanoate],Clint.1.Med,[2],10.8
O=C(O)C(F)(F)C(F)(F)F [Perfluoropropanoic_acid],Clint.1.Med,[2],0
O=S(=O)(O)C(F)(F)C(F)(F)C(F)(F)C(F)(F)C(F)(F)C(F)(F)F [Perfluorohexanesulfonic_acid],Clint.1.Med,[2],0
O=S(=O)([O-])C(F)(F)C(F)(F)C(F)(F)C(F)(F)C(F)(F)C(F)(F)C(F)(F)C(F)(F)C(F)(F)C(F)(F)F.[Na+] [Sodium_perfluorodecanesulfonate],Clint.1.Med,[2],4.87
NS(=O)(=O)C(F)(F)C(F)(F)C(F)(F)C(F)(F)C(F)(F)C(F)(F)F [Perfluorohexanesulfonamide],Unadj Clint,[1],0.00
same,Clint.1.Med,[2],0
O=C(O)C(F)(F)C(F)(F)C(F)(F)C(F)(F)C(F)(F)C(F)(F)C(F)(F)F [Perfluorooctanoic_acid],Clint.1.Med,[2],0
O=C(O)C(F)(F)C(F)(F)C(F)F [4H-Perfluorobutanoic_acid],Clint.1.Med,[2],0
O=C(O)C(F)(F)C(F)(F)C(F)(F)C(F)(F)F [Perfluoropentanoic_acid],Clint.1.Med,[2],0
C[N+](C)(C)CCCNS(=O)(=O)C(F)(F)C(F)(F)C(F)(F)C(F)(F)C(F)(F)C(F)(F)C(F)(F)C(F)(F)F.[I-],CLint for HTTK,[1],0
same,in vitro CLint exp assay,[1],0
same,Unadj Clint,[1],4.28
same,Css (mg/L),[3],19.15 mg/L
same,Css (uM),[3],31.97 µM
same,CLhep,[3],0.000 L/h
same,Fub,[3],0.02291
same,CLint,[3],0 µL/min
same,Mean fu,[4],0.0126
O=C(O)C(F)(F)C(F)(F)C(F)(F)C(F)(F)C(F)(F)C(F)(F)C(F)(F)C(F)(F)C(F)(F)C(F)(F)C(F)(F)C(F)(F)F [Perfluorotridecanoic_acid],Clint.1.Med,[2],0
O=S(=O)(O)C(F)(F)C(F)(F)C(F)(F)C(F)(F)C(F)(F)C(F)(F)F [Perfluorohexanesulfonic acid (PFHxS)],CLint for HTTK,[1],0
same,in vitro CLint exp assay,[1],0
same,Css (mg/L),[3],268.16 mg/L
same,Css (uM),[3],670.49 µM
same,CLhep,[3],0.000 L/h
same,Fub,[3],0.001636
same,CLint,[3],0 µL/min
same,Mean fu,[4],0.0009
O=S(=O)(Cl)C(F)(F)C(F)(F)C(F)(F)C(F)(F)C(F)(F)C(F)(F)C(F)(F)C(F)(F)F [Perfluoro-1-octanesulfonyl_chloride],Clint.1.Med,[2],0
O=C(O)C(F)(F)C(F)(F)C(F)(F)C(F)(F)C(F)(F)C(F)(F)C(F)(F)C(F)(F)F [Perfluorononanoic acid (PFNA)],CLint for HTTK,[1],0
same,in vitro CLint exp assay,[1],0
same,Css (mg/L),[3],150.84 mg/L
same,Css (uM),[3],325.11 µM
same,CLhep,[3],0.000 L/h
same,Fub,[3],0.002909
same,CLint,[3],0 µL/min
same,Mean fu,[4],0.0016
"O=C(O)C(F)(F)C(F)(F)C(F)(F)C(F)(F)F [PFPeA, Perfluoropentanoic acid]",Unadj Clint,[1],2.13
same,Css,"[3]; human steady-state concentration, 1 mg/kg/day exposure rate, loss of parent compound only",20.78 µM
same,fup (fraction unbound in plasma),[4]; human plasma,0.0440
O=S(=O)([O-])C(F)(F)C(F)(F)C(F)(F)C(F)(F)C(F)(F)C(F)(F)C(F)(F)C(F)(F)F.[K+],CLint for HTTK,[1],0
same,in vitro CLint exp assay,[1],2.96
same,Css (mg/L),[3],60.34 mg/L
same,Css (uM),[3],120.69 µM
same,CLhep,[3],0.000 L/h
same,Fub,[3],0.007273
same,CLint,[3],0 µL/min
same,Mean fu,[4],0.004
CNS(=O)(=O)C(F)(F)C(F)(F)C(F)(F)C(F)(F)C(F)(F)C(F)(F)C(F)(F)C(F)(F)F,Clint.1.Med,[2],48.7
O=C(O)C(F)(F)C(F)(F)C(F)(F)OC(F)(C(F)(F)F)C(F)(F)F,CLint for HTTK,[1],5.78
same,in vitro CLint exp assay,[1],5.78
same,Css (mg/L),[3],11.42 mg/L
same,Css (uM),[3],30.05 µM
same,CLhep,[3],0.232 L/h
same,Fub,[3],0.003818
same,CLint,[3],1014737 µL/min
same,Mean fu,[4],0.0021
O=S(=O)([O-])C(F)(F)C(F)(F)C(F)(F)C(F)(F)C(F)(F)C(F)(F)C(F)(F)C(F)(F)F.[K+] [Potassium_perfluorooctanesulfonate],Clint.1.Med,[2],0
"O=S(=O)(OCC(F)(F)F)C(F)(F)C(F)(F)C(F)(F)C(F)(F)F [2,2,2-Trifluoroethyl perfluorobutanesulfonate]",CLint for HTTK,[1],0
same,in vitro CLint exp assay,[1],0.00
same,Unadj Clint,[1],2.84
same,Css (mg/L),[3],65.09 mg/L
same,Css (uM),[3],170.41 µM
same,CLhep,[3],0.000 L/h
same,Fub,[3],0.006742
same,CLint,[3],0 µL/min
same,Mean fu,[4],0.0039
O=S(=O)([O-])C(F)(F)C(F)(F)C(F)(F)C(F)(F)C(F)(F)C(F)(F)F.[K+],CLint for HTTK,[1],0
same,in vitro CLint exp assay,[1],0
same,Css (mg/L),[3],241.34 mg/L
same,Css (uM),[3],603.44 µM
same,CLhep,[3],0.000 L/h
same,Fub,[3],0.001818
same,CLint,[3],0 µL/min
same,Mean fu,[4],0.001
O=C(O)C(F)(F)C(F)(F)C(F)(F)OC(F)(F)F [Perfluoro(4-methoxybutanoic)_acid],Clint.1.Med,[2],0
